Assay results published in patent US10112911B2, “Substituted cyanoguanidines as oral anti-virals” (Abbvie Inc, priority 2012, dated 2018).

test system: RSV (Group A, Long Strain); assay: Cytopathetic effect (CPE) protection antiviral assay, MTT readout; format: cell-based; conditions: human respiratory syncytial virus, HEp-2, 96 h, HEp-2 cells, 0.2 MOI RSV, 4 days incubation, protection from CPE (Table 1); read-out: RSV EC50
Procedure: HEp-2 cells and RSV (Group A, Long Strain) were obtained from the American Type Culture Collection (Manassas, Va.).
A cytopathetic effect (CPE) protection assay was performed to determine the ability of a compound to protect the cells from viral infection and thus the CPE induced by viral infection. 96-Well plates were first seeded with […] per well in Dulbecco's modified Eagle's medium (DMEM) containing 10% fetal bovine serum (FBS). One day after the cells were seeded, they were preincubated with serial dilutions of compounds prepared in 100 μL assay medium (DMEM mixed with F12 medium at a 1:1 ratio, supplemented with 2% FBS and 1 mM sodium pyruvate) for 1 hour at 37° C. 100 μL of assay medium containing 0.2 multiplicity of infection (MOI) of RSV was then added to each well of cells. In addition to wells containing infected cells incubated with compounds, each plate also contained replicates of two kinds of controls: (1) Virus control contained cells infected with 0.2 MOI of RSV in assay medium, (2) Uninfected cell control contained cells incubated with assay medium only. After 4 days of incubation at 37° C., the viability of cells was assessed using MTT (Thiazolyl blue tetrazolium bromide, Sigma). A stock solution of MTT, at a concentration of 4 mg/mL in phosphate-buffered saline, was added to all wells at 25 μL per well. Plates were further incubated for 4 hours, and each well was then treated with 50 μL of a solution containing 20% sodium dodecyl sulfate (SDS) and 0.02 N HCl. After an overnight incubation, the plates were measured on a BioTek® microtiter plate reader at wavelengths of 570 nm and 650 nm. The MTT detection is based on the fact that viable (uninfected) cells can reduce the tetrazolium salts into colored formazan products, which can then be quantitated by spectrometry. Based on the spectrometric absorbance of each sample, the percent of protection from CPE, which is an indicator of protection from viral infection, can be calculated for each compound and the 50% effective concentrations (EC50) can be calculated using a nonlinear regression curve fitting equation provided by the GraphPad Prism® 4 software.
Compounds were tested to determine both their antiviral and toxicity to determine their therapeutic window. Determination of the EC50 and TD50 of these active compounds were repeated one additional time to confirm the window.

| SMILES | EC50 [µM] |
| --- | --- |
| CC(C)C1CN(c2cnc3ccccc3n2)CCN1/C(=N\C#N)Nc1cccc(Cl)c1 (centres unmarked) [Example 1.28, N-(3-chlorophenyl)-N′-cyano-2-isopropyl-4-(quinoxalin-2-yl)piperazine-1-carboximidamide] | 3.1 |
| Cc1ccccc1NC(=NC#N)N1CCN(c2ccc3cccnc3n2)CC1C(C)C (centres unmarked) [Example 1.66, N′-cyano-2-isopropyl-N-(2-methylphenyl)-4-(1,8-naphthyridin-2-yl)piperazine-1-carboximidamide] | 1.5 |
| CC(C)CC1CN(c2cnc3ccccc3n2)CCN1/C(=N\C#N)Nc1ccccc1Cl (centres unmarked) [Example 1.41, N-(2-chlorophenyl)-N′-cyano-2-isobutyl-4-(quinoxalin-2-yl)piperazine-1-carboximidamide] | 1.22 |
| Cc1ccccc1N/C(=N/C#N)N1CCN(c2cnc3ccc(F)cc3n2)CC1C(C)C (centres unmarked) [Example 1.60, N′-cyano-4-(7-fluoroquinoxalin-2-yl)-2-isopropyl-N-(2-methylphenyl)piperazine-1-carboximidamide] | 1.05 |
| Cc1ccc(F)cc1N/C(=N/C#N)N1CCN(c2cnc3ccccc3n2)CC1C(C)C (centres unmarked) [Example 1.31, N′-cyano-N-(5-fluoro-2-methylphenyl)-2-isopropyl-4-(quinoxalin-2-yl)piperazine-1-carboximidamide] | 2 |
| Cc1ccccc1N/C(=N/C#N)N1CCN(c2cnc3cc(C(F)(F)F)ccc3n2)CC1C(C)C (centres unmarked) [Example 1.57, N′-cyano-2-isopropyl-N-(2-methylphenyl)-4-[6-(trifluoromethyl)quinoxalin-2-yl]piperazine-1-carboximidamide] | 0.29 |
| Cc1ccccc1NC(=NC#N)N1CCN(c2nc(C)c(C)c(NC3CCCCC3)n2)CC1C(C)C (centres unmarked) [Example 1.64, N′-cyano-4-[4-(cyclohexylamino)-5,6-dimethylpyrimidin-2-yl]-2-isopropyl-N-(2-methylphenyl)piperazine-1-carboximidamide] | > 10 |
| Cc1ccccc1NC(=NC#N)N1CCN(c2cncc(N3CCOCC3)n2)CC1C(C)C (centres unmarked) [Example 1.63, N′-cyano-2-isopropyl-N-(2-methylphenyl)-4-[6-(morpholin-4-yl)pyrazin-2-yl]piperazine-1-carboximidamide] | > 10 |
| Cc1ccccc1N/C(=N/C#N)N1CCN(c2cnc3cc(F)c(F)cc3n2)CC1C(C)C (centres unmarked) [Example 1.51, N′-cyano-4-(6,7-difluoroquinoxalin-2-yl)-2-isopropyl-N-(2-methylphenyl)piperazine-1-carboximidamide] | 0.69 |
| Cc1ccc2ccc(N3CCN(C(=NC#N)Nc4ccccc4C)C(C(C)C)C3)nc2n1 (centres unmarked) [Example 1.68, N′-cyano-2-isopropyl-4-(7-methyl-1,8-naphthyridin-2-yl)-N-(2-methylphenyl)piperazine-1-carboximidamide] | > 10 |
| Cc1ccccc1NC(=NC#N)N1CCN(c2cnc3cc(F)ccc3n2)C[C@@H]1C(C)C [Example 1.67, (2S)—N′-cyano-4-(6-fluoroquinoxalin-2-yl)-2-isopropyl-N-(2-methylphenyl)piperazine-1-carboximidamide] | 0.36 |
| Cc1ccccc1NC(=NC#N)NC(CNc1cnc2ccccc2n1)C(C)C (centres unmarked) [Example 2.1, 2-cyano-1-(2-methylphenyl)-3-[3-methyl-1-(quinoxalin-2-ylamino)butan-2-yl]guanidine] | > 10 |
| Cc1ccccc1NC(=NC#N)N1CCN(c2ccc3nccnc3n2)CC1C(C)C (centres unmarked) [Example 1.65, N′-cyano-2-isopropyl-N-(2-methylphenyl)-4-(pyrido[2,3-b]pyrazin-6-yl)piperazine-1-carboximidamide] | 5.9 |
| CC(C)C1CN(c2cnc3ccccc3n2)CCN1/C(=N\C#N)Nc1ccccc1F (centres unmarked) [Example 1.21, N′-cyano-N-(2-fluorophenyl)-2-isopropyl-4-(quinoxalin-2-yl)piperazine-1-carboximidamide] | 2.07 |
| CC(C)C1CN(c2cnc3ccccc3n2)CCN1/C(=N\C#N)Nc1ccc2c(c1)OCO2 (centres unmarked) [Example 1.14, N-(1,3-benzodioxol-5-yl)-N′-cyano-2-isopropyl-4-(quinoxalin-2-yl)piperazine-1-carboximidamide] | > 10 |

Other lines, results leading:

| EC50 [µM] | SMILES |
| --- | --- |
| > 10 | Cc1cc(F)ccc1N/C(=N/C#N)N1CCN(c2cnc3ccccc3n2)CC1C(C)C (centres unmarked) [Example 1.32, N′-cyano-N-(4-fluoro-2-methylphenyl)-2-isopropyl-4-(quinoxalin-2-yl)piperazine-1-carboximidamide] |
| > 3.1 | Cc1cccc(N/C(=N/C#N)N2CCN(c3cnc4ccccc4n3)CC2CC(C)C)c1 (centres unmarked) [Example 1.38, N′-cyano-2-isobutyl-N-(3-methylphenyl)-4-(quinoxalin-2-yl)piperazine-1-carboximidamide] |
| > 10 | CC(C)CC1CN(c2cnc3ccccc3n2)CCN1/C(=N\C#N)Nc1cccc(F)c1 (centres unmarked) [Example 1.40, N′-cyano-N-(3-fluorophenyl)-2-isobutyl-4-(quinoxalin-2-yl)piperazine-1-carboximidamide] |
| > 6.6 | Cc1ccccc1N/C(=N/C#N)N1CCN(c2ccc3ccccc3n2)CC1C(C)C (centres unmarked) [Example 1.61, N′-cyano-2-isopropyl-N-(2-methylphenyl)-4-(quinolin-2-yl)piperazine-1-carboximidamide] |
| > 10 | Cc1ccc(N/C(=N/C#N)N2CCN(c3cnc4ccccc4n3)CC2C(C)C)cc1 (centres unmarked) [Example 1.16, N′-cyano-2-isopropyl-N-(4-methylphenyl)-4-(quinoxalin-2-yl)piperazine-1-carboximidamide] |
| > 1.38 | CCC(C)C1CN(c2cnc3ccccc3n2)CCN1/C(=N\C#N)Nc1ccccc1C (centres unmarked) [Example 1.47, 2-sec-butyl-N′-cyano-N-(2-methylphenyl)-4-(quinoxalin-2-yl)piperazine-1-carboximidamide] |
| > 6.68 | CC(C)C1CN(c2cnc3ccccc3n2)CCN1/C(=N\C#N)Nc1ccc(C(F)(F)F)cc1 (centres unmarked) [Example 1.24, N′-cyano-2-isopropyl-4-(quinoxalin-2-yl)-N-[4-(trifluoromethyl)phenyl]piperazine-1-carboximidamide] |
| > 10 | CC(C)c1ccccc1N/C(=N/C#N)N1CCN(c2cnc3ccccc3n2)CC1C(C)C (centres unmarked) [Example 1.26, N′-cyano-2-isopropyl-N-(2-isopropylphenyl)-4-(quinoxalin-2-yl)piperazine-1-carboximidamide] |
| > 7.29 | CC(C)C1CN(c2cnc3ccccc3n2)CCN1/C(=N\C#N)Nc1cccc(C(F)(F)F)c1 (centres unmarked) [Example 1.25, N′-cyano-2-isopropyl-4-(quinoxalin-2-yl)-N-[3-(trifluoromethyl)phenyl]piperazine-1-carboximidamide] |
| > 10 | Cc1ccccc1NC(=NC#N)N1CCN(c2cnc3ccccc3n2)C(C(C)C)C1 (centres unmarked) [Example 1.70, N′-cyano-3-isopropyl-N-(2-methylphenyl)-4-(quinoxalin-2-yl)piperazine-1-carboximidamide] |
| > 10 | Cc1ccccc1N/C(=N/C#N)N1CCN(c2nc3ccccc3nc2C)CC1C(C)C (centres unmarked) [Example 1.52, N′-cyano-2-isopropyl-N-(2-methylphenyl)-4-(3-methylquinoxalin-2-yl)piperazine-1-carboximidamide] |
| > 10 | Cc1ccccc1N/C(=N/C#N)N1CCN(c2cnc3ccccc3n2)CC12CCC2 [Example 1.43, N′-cyano-N-(2-methylphenyl)-8-(quinoxalin-2-yl)-5,8-diazaspiro[3.5]nonane-5-carboximidamide] |
| > 10 | Cc1ccccc1N/C(=N/C#N)N1CCN(c2cnc3ccccc3n2)CC1C(C)(C)C (centres unmarked) [Example 1.46, 2-tert-butyl-N′-cyano-N-(2-methylphenyl)-4-(quinoxalin-2-yl)piperazine-1-carboximidamide] |
| > 10 | CC(C)C1CN(c2cnc3ccccc3n2)CCN1/C(=N\C#N)Nc1cccc(F)c1 (centres unmarked) [Example 1.20, N′-cyano-N-(3-fluorophenyl)-2-isopropyl-4-(quinoxalin-2-yl)piperazine-1-carboximidamide] |
| > 3.2 | Cc1cc2ncc(N3CCN(/C(=N\C#N)Nc4ccccc4C)C(C(C)C)C3)nc2cc1C (centres unmarked) [Example 1.50, N′-cyano-4-(6,7-dimethylquinoxalin-2-yl)-2-isopropyl-N-(2-methylphenyl)piperazine-1-carboximidamide] |
| > 32 | Cc1ccccc1N/C(=N/C#N)N1CCN(c2ncc3ccccc3n2)CC1C(C)C (centres unmarked) [Example 1.62, N′-cyano-2-isopropyl-N-(2-methylphenyl)-4-(quinazolin-2-yl)piperazine-1-carboximidamide] |
| > 3.16 | Cc1c(F)cccc1N/C(=N/C#N)N1CCN(c2cnc3ccccc3n2)CC1C(C)C (centres unmarked) [Example 1.29, N′-cyano-N-(3-fluoro-2-methylphenyl)-2-isopropyl-4-(quinoxalin-2-yl)piperazine-1-carboximidamide] |
